Data: US20250109162A1, “FLEX-NUCLEOSIDE ANALOGUES, NOVEL THERAPEUTICS AGAINST VIRUSES” (UNIVERSITY OF MARYLAND, BALTIMORE COUNTY, priority 2022, published 2025)
pEC50, pIC50: −log10 of the molar value. “And” between values parts separate entries of the source, which are not always exact repeats. Identical values can stand only once. Like-named read-outs stand apart in the source and are kept apart here.

What was measured:
[1] = system: Dengue Virus 2, strain New Guinea C; assay type: cell-based
[2] = system: Chikungunya Virus, strain S27, ATCC VR-64; assay: microbe, parasite or virus in culture; assay type: cell-based
[3] = system: Epstein-Barr virus, strain Akata; assay: microbe, parasite or virus in culture; assay type: cell-based; settings: for EC90: read-out: EC90 - compound concentration that reduces viral replication by 90%
Akata cells = settings: human
Enterovirus = assay: microbe, parasite or virus in culture; assay type: cell-based
[4] = system: Ebola Virus, strain Zaire; assay type: cell-based
Vero cells = settings: African green monkey
CHIKV = CHIKV IC50 (Table 8); assay type: cell-based; settings: Chikungunya virus
HPV11 replicon = assay type: cell-based, Human papillomavirus
HBV = HBV (Tavis) EC50 (Table 8); assay type: cell-based; settings: Hepatitis B virus
BK, Gardner = assay: microbe, parasite or virus in culture; assay type: cell-based, BK virus (aka Human polyomavirus 1); settings: Betapolyomavirus hominis
EBOV (VP30, Huh) = assay: microbe, parasite or virus in culture; assay type: cell-based, Ebola Virus; settings: Zaire ebolavirus
HHV-6B, Z29 = assay: microbe, parasite or virus in culture; assay type: cell-based, human herpesvirus 6; settings: Human betaherpesvirus 6, MOLT-3
[5] = Cytotoxicity in HBV (Tavis) assay (Table 8); assay type: cell-based
[6] = system: MERS Coronavirus, strain EMC; assay type: cell-based
DENV2 = DENV2 IC50 (Table 8); assay type: cell-based, Dengue Virus 2; settings: Dengue virus
[7] = human gammaherpesvirus 4, Akata

SMILES: C#C[C@@]1(O)[C@H](O)[C@@H](CO)O[C@H]1n1ccc2c(N)ncnc21 [NITD008]
- CC50 (Huh7 cells): > 100 µM
- pEC50 [1]: 6.44 and 6.37

SMILES: Nc1nc(=O)n([C@@H]2C[C@@H](O)[C@H](CO)O2)cc1-c1ccco1 [CHK-05, 4-amino-5-(furan-2-yl)-1-((2S,4R,5S)-4-hydroxy-5-(hydroxymethyl)tetrahydrofuran-2-yl)pyrimidin-2(1H)-one]
- pEC50 [2]: < 4.38
- pEC50 ([2]; Chikungunya virus): < 4.17
- EC90 [3, 7]: > 100 µM
- CC50 (Akata cells): > 100 µM
- CC50 (Huh7 cells; human): > 100 µM
- pEC50 (Enterovirus): 4.62
- pEC50 [4]: 4.74
- CC50 (Vero cells): > 100 µM

SMILES: NC(=O)c1nc(F)c[nH]c1=O [Favipiravir, reference compound]
- CC50 (Vero cells): > 1000 µM

SMILES: Nc1nc(=O)n([C@@H]2C[C@@H](O)[C@H](CO)O2)cc1-c1cccs1 [CHK-06, 4-amino-1-((2S,4R,5S)-4-hydroxy-5-(hydroxymethyl)tetrahydrofuran-2-yl)-5-(thiophen-2-yl)pyrimidin-2(1H)-one]
- pIC50 (CHIKV): 4.12

SMILES: Nc1nc2c(ncn2CCOCP(=O)(O)O)c(=O)[nH]1 [PMEG]
- pEC50 (HPV11 replicon): 5.04 to 5.70

SMILES: Cc1ccc(-c2cn([C@@H]3C[C@@H](O)[C@H](CO)O3)c(=O)[nH]c2=O)s1 [CHK-03, 1-((2S,4R,5S)-4-hydroxy-5-(hydroxymethyl)tetrahydrofuran-2-yl)-5-(5-methylthiophen-2-yl)pyrimidine-2,4(1H,3H)-dione]
- CC50 (Akata cells): > 100 µM

SMILES: O=c1[nH]c(=O)n([C@@H]2C[C@@H](O)[C@H](CO)O2)cc1-c1cccs1 [CHK-02, 1-((2S,4R,5S)-4-hydroxy-5-(hydroxymethyl)tetrahydrofuran-2-yl)-5-(thiophen-2-yl)pyrimidine-2,4(1H,3H)-dione]
- pEC50 (HBV): > 6.49
- pEC50 [3, 7]: 4.97
- pEC50 (BK, Gardner): > 7.32
- CC50 (in vitro): > 150 µM
- pEC50 (EBOV (VP30, Huh)): 4.69
- pEC50 (HHV-6B, Z29): 4.95
- CC50 [5]: > 32 µM

SMILES: O=c1nc(NO)ccn1[C@@H]1O[C@H](CO)[C@@H](O)[C@H]1O [EIDD-1931]
- CC50 (Vero 76 cells): >10 µg/mL
- CC50 (HVero 76 cells): >100 µg/mL
- EC50 [6]: 0.036 µg/mL and 0.034 µg/mL

SMILES: Cc1ccc(-c2cn([C@@H]3C[C@@H](O)[C@H](CO)O3)c(=O)nc2N)o1 [CHK-08, 4-amino-1-((2S,4R,5S)-4-hydroxy-5-(hydroxymethyl)tetrahydrofuran-2-yl)-5-(5-methylfuran-2-yl)pyrimidin-2(1H)-one]
- pIC50 (DENV2): 4.13

SMILES: Nc1ccn(C[C@@H](CO)OCP(=O)(O)O)c(=O)n1 [Cidofovir, reference compound]
- pEC50 ([3]; read-out: EC50 - compound concentration that reduces viral replication by 50%): 5.23
- EC90 [3]: 73.5 µM
